# Source: publication PMC3914206
# Tests used:
# Type in all cases: binding
# panel of 442 kinases [1] = target: T1, panel of 442 kinases (Homo sapiens, UniProt Q9HC98); conditions: Compound Concentration 10 µM
# T1 construct: purchased KINOMEscan
# Description: (§1) We assessed the selectivity of members of this scaffold using the KINOMEscan methodology across a near comprehensive panel of 442 kinases [[18,27]].
# panel of 442 kinases [2] = target: T2, panel of 442 kinases (Homo sapiens, UniProt Q8N5S9); conditions: Compound Concentration 10 µM
# T2 construct: purchased KINOMEscan
# T2 sequence (Q8N5S9 whole entry): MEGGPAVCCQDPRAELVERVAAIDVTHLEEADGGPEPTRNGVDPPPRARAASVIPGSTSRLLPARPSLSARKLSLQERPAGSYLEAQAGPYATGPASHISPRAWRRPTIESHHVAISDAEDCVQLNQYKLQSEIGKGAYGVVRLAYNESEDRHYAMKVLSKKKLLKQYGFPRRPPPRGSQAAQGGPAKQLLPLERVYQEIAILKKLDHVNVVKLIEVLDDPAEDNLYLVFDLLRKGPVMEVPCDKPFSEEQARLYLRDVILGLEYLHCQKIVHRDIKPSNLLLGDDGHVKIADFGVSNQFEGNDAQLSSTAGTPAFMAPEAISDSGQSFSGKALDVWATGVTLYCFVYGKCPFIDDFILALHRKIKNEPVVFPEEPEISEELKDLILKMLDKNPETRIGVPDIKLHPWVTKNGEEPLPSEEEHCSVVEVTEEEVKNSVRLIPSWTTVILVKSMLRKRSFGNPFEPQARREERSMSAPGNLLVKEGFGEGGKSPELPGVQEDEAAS
# Description: as §1
# panel of 442 kinases [3] = target: T3, panel of 442 kinases (Homo sapiens, UniProt Q9H4B4); conditions: Compound Concentration 10 µM
# T3 construct: purchased KINOMEscan
# T3 sequence (Q9H4B4 whole entry): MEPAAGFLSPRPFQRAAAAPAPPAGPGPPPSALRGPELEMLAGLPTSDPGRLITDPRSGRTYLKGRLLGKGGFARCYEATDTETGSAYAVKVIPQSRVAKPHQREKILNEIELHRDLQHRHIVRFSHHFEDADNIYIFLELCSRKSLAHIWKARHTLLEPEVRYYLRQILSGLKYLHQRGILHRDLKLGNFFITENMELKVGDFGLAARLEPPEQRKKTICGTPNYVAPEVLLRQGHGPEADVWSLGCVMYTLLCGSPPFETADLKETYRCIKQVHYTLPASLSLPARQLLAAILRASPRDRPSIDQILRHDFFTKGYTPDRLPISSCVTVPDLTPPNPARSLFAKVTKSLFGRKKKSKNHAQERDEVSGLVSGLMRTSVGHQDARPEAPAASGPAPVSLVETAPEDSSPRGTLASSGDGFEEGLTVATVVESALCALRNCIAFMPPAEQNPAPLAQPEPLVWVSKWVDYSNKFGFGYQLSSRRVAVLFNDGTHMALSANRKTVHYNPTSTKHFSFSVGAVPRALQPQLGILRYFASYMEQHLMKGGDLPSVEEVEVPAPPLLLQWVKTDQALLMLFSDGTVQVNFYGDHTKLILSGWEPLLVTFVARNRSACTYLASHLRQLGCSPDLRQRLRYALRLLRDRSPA
# Description: as §1
# panel of 442 kinases [4] = target: T4, panel of 442 kinases (Homo sapiens, UniProt P04629); conditions: kinase TRKA; compound concentration 10 µM
# T4 construct: purchased KINOMEscan
# T4 sequence (P04629 33-796): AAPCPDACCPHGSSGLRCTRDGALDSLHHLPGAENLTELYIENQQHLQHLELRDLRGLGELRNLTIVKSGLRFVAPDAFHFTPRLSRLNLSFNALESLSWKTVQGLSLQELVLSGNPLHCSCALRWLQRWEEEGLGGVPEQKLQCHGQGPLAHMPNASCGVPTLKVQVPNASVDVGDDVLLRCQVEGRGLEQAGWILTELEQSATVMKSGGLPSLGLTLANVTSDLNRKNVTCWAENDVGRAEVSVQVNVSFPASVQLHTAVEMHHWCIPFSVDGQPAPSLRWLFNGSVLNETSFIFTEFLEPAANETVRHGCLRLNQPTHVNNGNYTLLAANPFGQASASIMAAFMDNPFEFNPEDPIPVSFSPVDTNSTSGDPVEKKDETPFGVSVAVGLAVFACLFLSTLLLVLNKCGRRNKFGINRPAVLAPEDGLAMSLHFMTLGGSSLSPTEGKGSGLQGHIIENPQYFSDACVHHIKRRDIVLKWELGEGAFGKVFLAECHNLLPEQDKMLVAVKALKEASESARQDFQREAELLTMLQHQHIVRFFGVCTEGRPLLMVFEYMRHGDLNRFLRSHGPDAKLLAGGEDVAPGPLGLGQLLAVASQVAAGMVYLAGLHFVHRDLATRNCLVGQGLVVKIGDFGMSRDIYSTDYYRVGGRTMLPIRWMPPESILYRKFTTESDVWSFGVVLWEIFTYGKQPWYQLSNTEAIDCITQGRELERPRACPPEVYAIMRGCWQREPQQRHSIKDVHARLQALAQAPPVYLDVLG
# Description: as §1
# T1 sequence (Q9HC98 whole entry): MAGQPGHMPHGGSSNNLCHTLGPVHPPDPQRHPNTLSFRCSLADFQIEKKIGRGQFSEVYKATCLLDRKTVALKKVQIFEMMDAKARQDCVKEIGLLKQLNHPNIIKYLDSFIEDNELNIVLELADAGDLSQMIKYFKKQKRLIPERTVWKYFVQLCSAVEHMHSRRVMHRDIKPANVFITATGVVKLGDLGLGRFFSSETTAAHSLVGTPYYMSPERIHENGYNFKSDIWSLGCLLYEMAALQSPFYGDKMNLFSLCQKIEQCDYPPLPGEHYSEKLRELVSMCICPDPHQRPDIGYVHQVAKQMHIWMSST
smiles,measurement,setting,value
"COc1cc(C(=O)N2CCC(N3CCN(C)CC3)CC2)ccc1Nc1ncc2c(n1)N(C1CCCC1)c1ccccc1C(=O)N2C [Compound 25, 11-cyclopentyl-2-((2-methoxy-4-(4-(4-methylpiperazin-1-yl)piperidine-1-carbonyl)phenyl)amino)-5-methyl-5H-benzo[e]pyrimido[5,4-b][1,4]diazepin-6(11H)-one]",KINOMEscan: NEK6,panel of 442 kinases [1],100
same,KINOMEscan: CAMKK1,panel of 442 kinases [2],99
same,KINOMEscan: PLK3,panel of 442 kinases [3],73
same,"% Ctrl, TRKA",panel of 442 kinases [4],78 % Ctrl
COc1cc(C(=O)N2CCC(N3CCN(C)CC3)CC2)ccc1Nc1ncc2c(n1)N1CCc3cccc(c31)C(=O)N2C [Compound 24],KINOMEscan: NEK6,panel of 442 kinases [1],56
same,KINOMEscan: PLK3,panel of 442 kinases [3],3.8
same,"% Ctrl, TRKA",panel of 442 kinases [4],93 % Ctrl
COc1cc(C(=O)N2CCC(N3CCN(C)CC3)CC2)ccc1Nc1ncc2c(n1)N(C)c1ccccc1C(=O)N2C [15 (LRRK2-IN-1)],KINOMEscan: NEK6,panel of 442 kinases [1],76
same,KINOMEscan: CAMKK1,panel of 442 kinases [2],73
same,KINOMEscan: PLK3,panel of 442 kinases [3],51
same,"% Ctrl, TRKA",panel of 442 kinases [4],69 % Ctrl
CCOc1cc(C(=O)N2CCC(N3CCN(C)CC3)CC2)ccc1Nc1ncc2c(n1)N(C1CCCC1)c1ccccc1C(=O)N2C [Compound 26],KINOMEscan: NEK6,panel of 442 kinases [1],100
same,KINOMEscan: CAMKK1,panel of 442 kinases [2],100
same,KINOMEscan: PLK3,panel of 442 kinases [3],84
same,"% Ctrl, TRKA",panel of 442 kinases [4],100 % Ctrl
